This is an account of results in patent US9434745B2, “7-oxo-thiazolopyridine carbonic acid derivatives and their use in the treatment, amelioration or prevention of a viral disease” (Savira Pharmaceuticals GmbH, priority 2012, dated 2016).

In data set [1] the test system is influenza A virus (IAV) A/Aichi/2/68 (H3N2). As to the kind of experiment: Cytopathic effect (CPE) assay. It counts as cell-based. The following applies: MDCK cells, 48 hrs; for inhibition at 50 µM: read-out: CPE % reduction.
For the next data set, the system named is MDCK cells. As to the kind of experiment: Cytotoxicity in uninfected treated cells (CellTiter-Glo) within the CPE assay. It counts as cell-based, canine. The conditions noted are these: at 50 μM. Here is the method:
After removal of the culture medium and one washing step with PBS, virus and compound were added together to the cells. In the wells used for cytotoxicity determination (i.e. in the absence of viral infection), no virus suspension was added. Instead, infection medium was added. Each treatment was conducted in two replicates. After incubation at 37° C., 5% CO2 for 48 hrs, each well was observed microscopically for apparent cytotoxicity, precipitate formation, or other notable abnormalities. Then, cell viability was determined using CellTiter-Glo luminescent cell viability assay (Promega). The supernatant was removed carefully and 65 μl of the reconstituted reagent were added to each well and incubated with gentle shaking for 15 min at room temperature. Then, 60 μl of the solution was transferred to an opaque plate and luminescence (RLU) was measured using Synergy HT plate reader (Biotek).
Relative cell viability values of uninfected-treated versus uninfected-untreated cells were used to evaluate cytotoxicity of the compounds. Substances with a relative viability below 80% at the tested concentration were regarded as cytotoxic and retested at lower concentrations.
On the technique in general: ATP-based viability assays read luminescence as a measure of living cells.

Data set [2] concerns the target T1, influenza A virus (IAV) PA-Nter fragment (amino acids 1-209) (Influenza A virus, UniProt P31343).
T1 construct: PA-Nter fragment (amino acids 1-209); made in house
As to the kind of experiment: FRET endonuclease activity assay. The class given is biochemical. The following applies: for IC50: from initial reaction velocities (v0) of RNA substrate cleavage.

As to `O=C(O)c1cn(Cc2ccccc2-c2ccccc2)c2sc(N3CCCCC3)nc2c1=O`, the inhibition at 50 µM in data set [1] turned out to be 83%. With `Cc1[nH]c2ncnn2c(=O)c1CC(=O)O`, the inhibition at 50 µM in data set [1] amounted to 28%. The IC50 is the concentration that gives 50% inhibition. Lower therefore signals greater potency in that assay. On to `CSC1=NC2C(=O)C(C(=O)O)=CN(Cc3ccccc3-c3ccccc3)C2S1` (stereo not shown), for which, in the data set with MDCK cells, the “Cytotoxicity (relative viability below 80% regarded as cytotoxic)” value is recorded as “Toxic”. The half-maximal inhibitory concentration (IC50) in data set [2] was found to be 12 µM. As a reminder, the melting point is the temperature, or range, at which the solid turns liquid. `CCOC(=O)c1c[nH]c2nc(Nc3ccc(C)c(Cl)c3)nn2c1=O` registered a melting point greater than 340 °C. Turning to `CCOC(=O)c1cn(CCCc2ccccc2)c2cc(C3CC3)nn2c1=O`, the melting point was 150 to 155 °C.

For `CCOC(=O)Cc1c[nH]c2cc(-c3ccccc3)nn2c1=O`, the melting point lay within 245 to 250 °C. `O=C(O)c1cn(CCc2cccc(C(F)(F)F)c2)c2cc(C3CC3)nn2c1=O` gave a melting point of 200 to 205 °C. Turning to `CCOC(=O)Cc1c[nH]c2cc(C(F)(F)F)nn2c1=O`, the melting point fell in the range of 290 to 293 °C. The compound `O=C(O)Cc1c[nH]c2cc(C3CC3)nn2c1=O` registered a melting point greater than 300 °C. With `CCOC(=O)Cc1c[nH]c2nc(Nc3ccc(OC(C)C)cc3)nn2c1=O`, the melting point was 235 to 240 °C. As to `N#Cc1ccc(S(=O)(=O)Nc2nc3c(=O)c(C(=O)O)cn(Cc4ccccc4-c4ccccc4)c3s2)cc1`, the IC50 in data set [1] was found to be 18 µM; in data set [2], 2.2 µM. For `O=C(O)c1cn(Cc2ccccc2-c2ccccc2)c2sc(NC3CCCC3)nc2c1=O`, the “Cytotoxicity (relative viability below 80% regarded as cytotoxic)” value in the data set on MDCK cells is “toxic”. The compound also registered an IC50 in data set [2] of 5.5 µM. Compound `CCOC(=O)c1cn(CCc2cccc(Cl)c2)c2cc(C3CC3)nn2c1=O` showed a melting point of 160 to 165 °C.

Regarding `O=C(O)c1cn(Cc2ccccc2-c2ccc(Cl)cc2)c2sc(O)nc2c1=O`, in data set [1], the inhibition at 50 µM turned out to be 63%. For the compound `CCOC(=O)c1c[nH]c2cc(C(=O)NC3CCN(Cc4ccccc4)CC3)nn2c1=O`, the melting point lay within 264 to 266 °C.

`O=C(O)c1cn(CCCc2ccccc2)c2cc(C3CC3)nn2c1=O` yielded a melting point of 95 to 100 °C. Compound `O=C(O)c1cn(Cc2ccccc2)c2cc(C3CC3)nn2c1=O` had a melting point of 210 to 215 °C. Regarding `CCOC(=O)c1cn(CCc2ccc(OC)cc2)c2cc(C3CC3)nn2c1=O`, the melting point is 160 to 165 °C. Compound `O=C(NCCc1ccc(Cl)cc1)c1cc2[nH]cc(C(=O)O)c(=O)n2n1` returned a melting point greater than 300 °C. `O=C(O)c1c[nH]c2nc(NCc3cccc4ccccc34)nn2c1=O`: the melting point lay in the range of 245 to 250 °C. In turn, `CCOC(=O)c1c[nH]c2nc(Nc3ccc(NC(C)=O)cc3)nn2c1=O` showed a melting point greater than 330 °C. Regarding `CCOC(=O)c1c[nH]c2cc(C(=O)NCc3ccccc3)nn2c1=O`, the melting point was 290 to 292 °C. The same measure, in the same setting: to `O=C(O)c1cn(Cc2ccccc2)c2cc(C3CCCC3)nn2c1=O` belongs 213 to 215 °C. Regarding `CNC(=O)c1cn(Cc2ccccc2-c2ccccc2)c2sc(NCc3ccccc3)nc2c1=O`, the inhibition at 50 µM in data set [1] was 41%. `CCOC(=O)c1c[nH]c2nc(NCc3cccc4ccccc34)nn2c1=O` showed a melting point of 273 to 275 °C.

The compound `CCOC(=O)c1c[nH]c2c(C#N)c(CCCNC)nn2c1=O` registered a melting point of 285 to 287 °C. Consider `O=C(O)c1cn(CCc2ccc(O)cc2)c2cc(C3CC3)nn2c1=O`, for which the melting point is 265 to 270 °C. `CCOC(=O)c1cn(CCc2cccc(F)c2)c2cc(C3CC3)nn2c1=O` yielded a melting point of 160 to 165 °C. For the compound `COc1ccc(CCn2cc(C(=O)O)c(=O)n3nc(C4CC4)cc23)cc1`, the melting point lay in the range of 145 to 150 °C. `CCOC(=O)c1cn(CCc2ccc(O)cc2)c2cc(C3CC3)nn2c1=O` had a melting point of 95 to 100 °C. Take `O=C(O)c1c[nH]c2nc(NCc3ccccc3)nn2c1=O`: the melting point lay within 240 to 245 °C. `O=C(O)c1cn(CCc2ccc(C(F)(F)F)cc2)c2cc(C3CC3)nn2c1=O` displayed a melting point of 225 to 230 °C. In turn, `CCOC(=O)c1cn(CCc2ccccc2)c2cc(C3CCCC3)nn2c1=O` returned a melting point of 162 to 164 °C. In turn, `O=C(O)c1c[nH]c2cc(C3CC3)nn2c1=O` came in with a melting point of 275 to 278 °C. `O=C(O)c1cn(CCc2ccccc2)c2cc(C3CCCC3)nn2c1=O` displayed a melting point of 198 to 200 °C. `CCOC(=O)c1cn(Cc2ccccc2)c2cc(C3CCCC3)nn2c1=O` returned a melting point of 148 to 150 °C. With `CCOC(=O)Cc1c[nH]c2nc(Nc3ccccc3)nn2c1=O`, the melting point fell in the range of 255 to 257 °C. For `Nc1cc2n(C(=O)C3(c4ccccc4)CCCC3)cc(C(=O)O)c(=O)n2n1` [drawing 237], the inhibition at 50 µM in data set [1] was found to be 18%.

`COc1ccc(S(=O)(=O)Nc2nc3c(=O)c(C(=O)O)cn(Cc4ccc(Cl)cc4-c4ccccc4)c3s2)cc1`: the inhibition at 50 µM in data set [1] came out at 67%.

Regarding `CCOC(=O)Cc1c[nH]c2cc(C3CC3)nn2c1=O`, the melting point was 280 to 283 °C.

`O=C(O)c1cn(CCc2cccc(F)c2)c2cc(C3CC3)nn2c1=O`: the melting point was 220 to 225 °C. Consider `O=C(O)Cc1c[nH]c2cc(C(F)(F)F)nn2c1=O`, for which the melting point was 320 to 324 °C.

In turn, `CCOC(=O)c1c[nH]c2cc(C(=O)NCCc3ccc(Cl)cc3)nn2c1=O` registered a melting point greater than 300 °C. Compound `O=C(O)c1cn(CCc2ccc(Cl)cc2)c2cc(C3CC3)nn2c1=O` returned a melting point of 220 to 225 °C. Take `CC(C)c1cc2n(Cc3ccccc3)cc(C(=O)O)c(=O)n2n1`: the melting point lay within 180 to 185 °C. On the same count and under the same terms, as for `CCOC(=O)c1cn(Cc2ccccc2)c2cc(C(C)C)nn2c1=O`, the figure is 135 to 140 °C. For `CCOC(=O)c1cn(Cc2ccccc2-c2ccccc2)c2sc(SC)nc2c1=O`, in data set [1], the inhibition at 50 µM is 35%. Also, in data set [2], the “FRET (result in words)” value was “inactive”. As for `CC(C)c1cc2n(CCc3ccccc3)cc(C(=O)O)c(=O)n2n1`, the melting point lay in the range of 220 to 225 °C. Still for that read-out and setting: to `CCOC(=O)c1cn(CCc2ccccc2)c2cc(C3CC3)nn2c1=O` belongs 155 to 160 °C; to `CCOC(=O)c1c[nH]c2nc(NCc3ccc(Br)cc3)nn2c1=O`, 286 to 287 °C. In turn, `CCOC(=O)Cc1cn(C)c2cc(C3CC3)nn2c1=O` returned a melting point of 147 to 150 °C. Consider `CCOC(=O)c1c[nH]c2nc(NCc3ccccc3)nn2c1=O`, for which the melting point is 275 to 278 °C. With `O=C(O)c1cn(Cc2ccccc2-c2ccccc2)c2nc(NCc3ccccc3)sc2c1=O`, the inhibition at 50 µM in data set [1] was 68%. For the compound `CCOC(=O)c1cn(CCc2cccc(C(F)(F)F)c2)c2cc(C3CC3)nn2c1=O`, the melting point fell in the range of 140 to 145 °C. Turning to `O=C(O)c1c[nH]c2cc(C(F)(F)F)nn2c1=O`, the melting point was greater than 340 °C.

Compound `CCOC(=O)c1cn(CCc2ccccc2)c2cc(C(C)C)nn2c1=O` yielded a melting point of 130 to 135 °C. In turn, `CCOC(=O)c1cn(CCc2ccc(Cl)cc2)c2cc(C3CC3)nn2c1=O` had a melting point of 190 to 195 °C. For the compound `O=C(O)c1cn(Cc2ccccc2-c2ccccc2)c2nc(NC3CCCC3)sc2c1=O`, in data set [1], the inhibition at 50 µM amounted to 70%. `O=C(O)Cc1c[nH]c2nc(Nc3ccccc3)nn2c1=O` gave a melting point of 279 to 281 °C. Regarding `CCOC(=O)c1cn(Cc2ccccc2)c2cc(C3CC3)nn2c1=O`, the melting point is 160 to 165 °C.
